Data published in US11155544B2, “Heterocycle comprising tyrosine kinase inhibitors” (Principia Biopharma Inc., priority 2015, dated 2021).

Molecular target: human recombinant BTK (Homo sapiens (Human), UniProt Q06187)
Test: BTK Enzymatic Activity Assay (Caliper-based kinase assay)
Type: biochemical
Details: human recombinant BTK (0.5 nM), ATP (16 μM), peptide substrate (1 μM), room temperature for 3 h
Procedure: A Caliper-based kinase assay (Caliper Life Sciences, Hopkinton, Mass.) was used to measure inhibition of BTK kinase activity of a compound of the present disclosure. Serial dilutions of test compounds were incubated with human recombinant BTK (0.5 nM), ATP (16 μM) and a phosphoacceptor peptide substrate FAM-GEEPLYWSFPAKKK-NH2 (1 μM) at room temperature for 3 h. The reaction was then terminated with EDTA, final concentration 20 mM and the phosphorylated reaction product was quantified on a Caliper Desktop Profiler (Caliper LabChip 3000). Percent inhibition was calculated for each compound dilution and the concentration that produced 50% inhibition was calculated. This value is presented as the IC50.

Chain of human recombinant BTK (Q06187 whole entry): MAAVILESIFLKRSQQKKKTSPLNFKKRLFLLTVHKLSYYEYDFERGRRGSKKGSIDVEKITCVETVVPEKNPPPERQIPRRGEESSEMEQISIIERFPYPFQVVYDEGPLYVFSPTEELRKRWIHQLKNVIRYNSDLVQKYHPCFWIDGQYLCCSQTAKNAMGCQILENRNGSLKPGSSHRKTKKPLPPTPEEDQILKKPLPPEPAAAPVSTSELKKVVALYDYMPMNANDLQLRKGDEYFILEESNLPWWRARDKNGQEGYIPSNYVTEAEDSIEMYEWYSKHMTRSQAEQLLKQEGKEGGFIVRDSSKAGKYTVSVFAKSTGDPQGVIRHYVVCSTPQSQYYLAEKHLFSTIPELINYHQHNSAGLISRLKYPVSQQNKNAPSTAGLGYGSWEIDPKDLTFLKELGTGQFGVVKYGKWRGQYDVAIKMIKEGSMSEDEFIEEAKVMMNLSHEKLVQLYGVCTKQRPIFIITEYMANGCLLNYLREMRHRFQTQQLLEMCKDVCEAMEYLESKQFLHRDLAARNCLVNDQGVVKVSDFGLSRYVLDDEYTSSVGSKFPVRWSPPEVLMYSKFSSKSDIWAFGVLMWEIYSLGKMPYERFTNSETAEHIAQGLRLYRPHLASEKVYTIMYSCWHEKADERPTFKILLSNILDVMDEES

Question: Which IC50 does the source give for CC(C)(C=C(C#N)C(=O)N1CCC[C@@H](c2nc(-c3ccc(Oc4ccccc4)cc3F)c3c(N)nccn23)C1)N1CCN(C2COC2)CC1 [Compound 2, (R)-2-(3-(8-amino-1-(2-fluoro-4-phenoxyphenyl)imidazo[1,5-a]pyrazin-3-yl)piperidine-1-carbonyl)-4-methyl-4-(4-(oxetan-3-yl)piperazin-1-yl)pent-2-enenitrile] here?
Answer: 1.9 nM

Question: How did the IC50 turn out when CC(C)(C=C(C#N)C(=O)N1CCC[C@H]1Cn1nc(-c2ccc(C(=O)Nc3ccccn3)cc2)c2c(N)nccc21)N1CCN(C2COC2)CC1 [Compound 15, (S)-4-(4-amino-1-((1-(2-cyano-4-methyl-4-(4-(oxetan-3-yl)piperazin-1-yl)pent-2-enoyl)pyrrolidin-2-yl)methyl)-1H-pyrazolo[4,3-c]pyridin-3-yl)-N-(pyridin-2-yl)benzamide] was run?
Answer: 22.4 nM

Question: How did the IC50 turn out when CN1CCN(C(C)(C)C=C(C#N)C(=O)N2CCC[C@H]2Cn2nc(-c3ccc(C(=O)Nc4ccccn4)cc3)c3c(N)nccc32)CC1 [Compound 20, (S)-4-(4-amino-1-((1-(2-cyano-4-methyl-4-(4-methylpiperazin-1-yl)pent-2-enoyl)pyrrolidin-2-yl)methyl)-1H-pyrazolo[4,3-c]pyridin-3-yl)-N-(pyridin-2-yl)benzamide] was run?
Answer: 19.1 nM

Question: CC(C)(C=C(C#N)C(=O)N1CCC[C@H]1Cn1nc(-c2ccc(C(=O)Nc3ccccn3)cc2)c2c(N)nccc21)N1CCOCC1 [Compound 21, (S)-4-(4-amino-1-((1-(2-cyano-4-methyl-4-morpholinopent-2-enoyl)pyrrolidin-2-yl)methyl)-1H-pyrazolo[4,3-c]pyridin-3-yl)-N-(pyridin-2-yl)benzamide] was tested. Which IC50 did it give?
Answer: 18.6 nM

Question: For CC(C)(C=C(C#N)C(=O)N1CCC[C@@H](n2nc(-c3ccc(Oc4c(F)cccc4F)cc3)c3c(N)nccc32)C1)N1CCN(C2COC2)CC1 [Compound 28, (R)-2-(3-(4-amino-3-(4-(2,6-difluorophenoxy)phenyl)-1H-pyrazolo[4,3-c]pyridin-1-yl)piperidine-1-carbonyl)-4-methyl-4-(4-(oxetan-3-yl)piperazin-1-yl)pent-2-enenitrile], which IC50 is on record?
Answer: 0.9 nM

Question: Which IC50 does the source give for CC(C)(C=C(C#N)C(=O)N1CCC[C@@H](n2nc(-c3ccc(Oc4cccc(F)c4F)cc3)c3c(N)nccc32)C1)N1CCN(C2COC2)CC1 [Compound 29, (R)-2-(3-(4-amino-3-(4-(2,3-difluorophenoxy)phenyl)-1H-pyrazolo[4,3-c]pyridin-1-yl)piperidine-1-carbonyl)-4-methyl-4-(4-(oxetan-3-yl)piperazin-1-yl)pent-2-enenitrile] here?
Answer: 0.8 nM

Question: For CCN1CCN(C(C)(C)C=C(C#N)C(=O)N2CCC[C@H]2Cn2nc(-c3ccc(Oc4ccccc4)cc3F)c3c(N)nccc32)CC1=O [Compound 31, (S)-2-(2-((4-amino-3-(2-fluoro-4-phenoxyphenyl)-1H-pyrazolo[4,3-c]pyridin-1-yl)methyl)pyrrolidine-1-carbonyl)-4-(4-ethyl-3-oxopiperazin-1-yl)-4-methylpent-2-enenitrile], which IC50 is on record?
Answer: 11.5 nM

Question: With CN1CCN(C(C)(C)C=C(C#N)C(=O)N2CCC[C@H]2Cn2nc(-c3ccc(Oc4ccccc4)cc3F)c3c(N)nccc32)CC1=O [Compound 32, (S)-2-(2-((4-amino-3-(2-fluoro-4-phenoxyphenyl)-1H-pyrazolo[4,3-c]pyridin-1-yl)methyl)pyrrolidine-1-carbonyl)-4-methyl-4-(4-methyl-3-oxopiperazin-1-yl)pent-2-enenitrile] as the molecule, how does the IC50 read?
Answer: 8.9 nM

Question: CC(C)(C=C(C#N)C(=O)N1CCC[C@@H](n2nc(-c3ccc(Oc4ccccc4)cc3)c3c(N)nccc32)C1)N1CCN(C2COC2)CC1 [Compound 34, (R)-2-(3-(4-amino-3-(4-phenoxyphenyl)-1H-pyrazolo[4,3-c]pyridin-1-yl)piperidine-1-carbonyl)-4-methyl-4-(4-(oxetan-3-yl)piperazin-1-yl)pent-2-enenitrile] was tested. Which IC50 did it give?
Answer: 1.9 nM

Question: How did the IC50 turn out when CC(C)(C=C(C#N)C(=O)N1CCC[C@@H](c2nc(-c3ccc(Oc4ccccc4)cc3)c3c(N)nccn23)C1)N1CCN(C2COC2)CC1 [Compound 35, (R)-2-(3-(8-amino-1-(4-phenoxyphenyl)imidazo[1,5-a]pyrazin-3-yl)piperidine-1-carbonyl)-4-methyl-4-(4-(oxetan-3-yl)piperazin-1-yl)pent-2-enenitrile] was run?
Answer: 2.1 nM

Question: For CC(C)(C=C(C#N)C(=O)N1CCC[C@@H](n2nc(-c3ccc(Oc4ccccc4)cc3)c3c(N)nccc32)C1)N1CCN(C2(C)COC2)CC1 [Compound 39, (R)-2-(3-(4-amino-3-(4-phenoxyphenyl)-1H-pyrazolo[4,3-c]pyridin-1-yl)piperidine-1-carbonyl)-4-methyl-4-(4-(3-methyloxetan-3-yl)piperazin-1-yl)pent-2-enenitrile], which IC50 is on record?
Answer: 1.3 nM

Question: Which IC50 does the source give for CCN1CCN(C(C)(C)C=C(C#N)C(=O)N2CCC[C@@H](n3nc(-c4ccc(Oc5ccccc5)cc4F)c4c(N)nccc43)C2)CC1=O [Compound 40, (R)-2-(3-(4-amino-3-(2-fluoro-4-phenoxyphenyl)-1H-pyrazolo[4,3-c]pyridin-1-yl)piperidine-1-carbonyl)-4-methyl-4-(4-ethyl-3-oxopiperazin-1-yl)pent-2-enenitrile] here?
Answer: 2.4 nM

Question: Which IC50 does the source give for CCN1CCN(C(C)(C)C=C(C#N)C(=O)N2CCC[C@@H](n3nc(-c4ccc(Oc5ccccc5)cc4)c4c(N)nccc43)C2)CC1=O [Compound 41, (R)-2-(3-(4-amino-3-(4-phenoxyphenyl)-1H-pyrazolo[4,3-c]pyridin-1-yl)piperidine-1-carbonyl)-4-(4-ethyl-3-oxopiperazin-1-yl)-4-methylpent-2-enenitrile] here?
Answer: 2.4 nM

Question: With CC1(C=C(C#N)C(=O)N2CCC[C@@H](n3nc(-c4ccc(Oc5ccccc5)cc4)c4c(N)nccc43)C2)CCN(C2COC2)CC1 [Compound 42, (R)-2-(3-(4-amino-3-(4-phenoxyphenyl)-1H-pyrazolo[4,3-c]pyridin-1-yl)piperidine-1-carbonyl)-3-(4-methyl-1-(oxetan-3-yl)piperidin-4-yl)acrylonitrile] as the molecule, how does the IC50 read?
Answer: 2.6 nM

Question: How did the IC50 turn out when CC1(C=C(C#N)C(=O)N2CCC[C@@H](n3nc(-c4ccc(Oc5ccccc5)cc4)c4c(N)nccc43)C2)CCOCC1 [Compound 43, (R)-2-(3-(4-amino-3-(4-phenoxyphenyl)-1H-pyrazolo[4,3-c]pyridin-1-yl)piperidine-1-carbonyl)-3-(4-methyltetrahydro-2H-pyran-4-yl)acrylonitrile] was run?
Answer: 2 nM

Question: For CN1CCN(C(C)(C)C=C(C#N)C(=O)N2CCC[C@@H](n3nc(-c4ccc(C(=O)Nc5ccccn5)cc4)c4c(N)nccc43)C2)CC1 [Compound 45, (R)-4-(4-amino-1-(1-(2-cyano-4-methyl-4-(4-methylpiperazin-1-yl)pent-2-enoyl)piperidin-3-yl)-1H-pyrazolo[4,3-c]pyridin-3-yl)-N-(pyridin-2-yl)benzamide], which IC50 is on record?
Answer: 4.6 nM

Question: Which IC50 does the source give for CN(C1COC1)C(C)(C)C=C(C#N)C(=O)N1CCC[C@@H](n2nc(-c3ccc(C(=O)Nc4ccccn4)cc3)c3c(N)nccc32)C1 [Compound 46, (R)-4-(4-amino-1-(1-(2-cyano-4-methyl-4-(methyl(oxetan-3-yl)amino)pent-2-enoyl)piperidin-3-yl)-1H-pyrazolo[4,3-c]pyridin-3-yl)-N-(pyridin-2-yl)benzamide] here?
Answer: 2.1 nM

Question: CC(C)(C=C(C#N)C(=O)N1CCC[C@@H](n2nc(-c3ccc(C(=O)Nc4ccccn4)cc3)c3c(N)nccc32)C1)N1CCN(C2COC2)CC1 [Compound 47, (R)-4-(4-amino-1-(1-(2-cyano-4-methyl-4-(4-(oxetan-3-yl)piperazin-1-yl)pent-2-enoyl)piperidin-3-yl)-1H-pyrazolo[4,3-c]pyridin-3-yl)-N-(pyridin-2-yl)benzamide] was tested. Which IC50 did it give?
Answer: 4.1 nM

Question: How did the IC50 turn out when CC1(C=C(C#N)C(=O)N2CCC[C@@H](n3nc(-c4ccc(Oc5ccccc5)cc4F)c4c(N)nccc43)C2)CCOCC1 [Compound 48, (R)-2-(3-(4-amino-3-(2-fluoro-4-phenoxyphenyl)-1H-pyrazolo[4,3-c]pyridin-1-yl)piperidine-1-carbonyl)-3-(4-methyltetrahydro-2H-pyran-4-yl)acrylonitrile] was run?
Answer: 3.1 nM

Question: Which IC50 does the source give for CC1(C=C(C#N)C(=O)N2CCC[C@@H](n3nc(-c4ccc(Oc5ccccc5)cc4F)c4c(N)nccc43)C2)CCN(C2COC2)CC1 [Compound 49, (R)-2-(3-(4-amino-3-(2-fluoro-4-phenoxyphenyl)-1H-pyrazolo[4,3-c]pyridin-1-yl)piperidine-1-carbonyl)-3-(4-methyl-1-(oxetan-3-yl)piperidin-4-yl)acrylonitrile] here?
Answer: 1.8 nM

Question: How did the IC50 turn out when CC(C)(C=C(C#N)C(=O)N1CCC[C@@H](n2nc(-c3ccc(C(=O)Nc4cc(F)ccn4)cc3)c3c(N)nccc32)C1)N1CCN(C2COC2)CC1 [Compound 50, (R)-4-(4-amino-1-(1-(2-cyano-4-methyl-4-(4-(oxetan-3-yl)piperazin-1-yl)pent-2-enoyl)piperidin-3-yl)-1H-pyrazolo[4,3-c]pyridin-3-yl)-N-(4-fluoropyridin-2-yl)benzamide] was run?
Answer: 4.2 nM

Question: How did the IC50 turn out when CN1CCN(C(C)(C)C=C(C#N)C(=O)N2CCC[C@@H](c3nc(-c4ccc(Oc5ccccc5)cc4)c4c(N)nccn34)C2)CC1=O [Compound 52, (R)-2-(3-(8-amino-1-(4-phenoxyphenyl)imidazo[1,5-a]pyrazin-3-yl)piperidine-1-carbonyl)-4-methyl-4-(4-methyl-3-oxopiperazin-1-yl)pent-2-enenitrile] was run?
Answer: 1.8 nM

Question: How did the IC50 turn out when CC1(C=C(C#N)C(=O)N2CCC[C@@H](c3nc(-c4ccc(Oc5ccccc5)cc4F)c4c(N)nccn34)C2)CCOCC1 [Compound 53, (R)-2-(3-(8-amino-1-(2-fluoro-4-phenoxyphenyl)imidazo[1,5-a]pyrazin-3-yl)piperidine-1-carbonyl)-3-(4-methyltetrahydro-2H-pyran-4-yl)acrylonitrile] was run?
Answer: 2 nM
